Results on eight compounds are retold here after patent EP0648766A1, “AGENT ACTING ON THE CENTRAL NERVOUS SYSTEM, METHOD FOR ITS PREPARATION AND PHARMACEUTICAL COMPOSITIONS CONTAINING SUCH AGENT” (VITA-INVEST, S.A., priority 1993, dated 1994).

Like-named read-outs stand apart in the source and are kept apart here.

Data set [1] relates to mouse. Description: Antidepressive activity, desperate behaviour induced by enforced swimming, Porsolt test. To be noted: mice. The format is in vivo. Here is the method: 3) Antidepressive activity. Desperate behaviour induced in mouse by enforced swimming. Porsolt test.
This consists in subjecting the mice to a swimming test by placing them inside transparent cylinders of set dimensions, with water at a temperature of 20-22°C. After a prior detection test, the time the animal takes to adopt an immobile posture is determined, recording the duration of immobility. The average immobility time of the treated groups is compared with that of the control group.

The subject of data set [2] is rats. Description: Anxiolytic activity, social interaction test (method of File). The format is in vivo.
Text: 2) Anxiolytic activity. Social interaction test.
This consists in placing a pair of rats in an unknown and strongly lit environment.
Data set [3] can be described thus: Acute toxicity. Further details: species or system mice. To be noted: mouse, in vivo. As for the experimental part:
The acute toxicity is determined by different vias in mice.

Data set [4] is described as follows: Anxiolytic activity, two-compartment box (method of Crawley). Type of data set: in vivo. The text has this: 1) Anxiolytic activity. Two-compartment box.
The method used is that of Crawley, J.N.; Pharmacol. Biochem. Behav., 15, 695-699 (1981). This consists of a two-compartment box with different lighting, counting the time of stay and number of entries into the light and dark compartments, the number of lifting movements and the number of lines crossed in each of the two compartments, before and after treatment with the products under study.

Data set [5] concerns rats. As to the kind of experiment: Effect on learning and memory, passive avoidance test. The format is in vivo. The text has this:
4) Effect on learning and memory. Passive avoidance test on rats.
Use is made of the method of Chugh and colls., Eur. J. Pharmacol., 203, 121-123 (1991). This consists in placing the rats in a two-compartment (light and dark) box separated by a door which opens and closes as the experimenter wishes; the floor of both cages is constructed using a metal grid electrifiable as desired in terms of current and duration. The animal is conditioned to avoid the dark zone, and the time of latency in the exposures following the one in which the animals receive the electric shock of 0.2 mA and duration of 3 seconds is determined.

Where [6] appears, read: ip, mice, i.p., read-out: APPROXIMATE DL₅₀.
Setting [7] is: 0,01 mg/kg i.p., Excipient 158 ± 15.

Consider `CN(C)CCCN1c2ccccc2CCc2ccccc21` [[…]], for which, in data set [1] (30 mg/kg i.p., Excipient 132,53 ± 8,70), the “[…] (sec ± E.S.)” value is recorded as 71,72 ± 9,82 sec.
As to `CN1C(=O)CN=C(c2ccccc2)c2cc(Cl)ccc21` [DIAZEPAM], the “SOCIAL I[…] (sec ± E.S.)” value in data set [2] (2 mg/kg i.p., Excipient 158 ± 15) worked out at 257 ± 22 s.
In the case of `COc1cc(N)c(Cl)cc1C(=O)NC1CN2CCC1CC2` (stereo not shown) [ZACOPRIDE], the LD50 in data set [3] (setting [6]) worked out at 135 mg/kg.
Take `Cc1nccn1CC1CCc2c(c3ccccc3n2C)C1=O` (stereo not shown) [ONDANSETRON]: the “SOCIAL INTERACTION TIME (sec ± E.S.)” value in data set [2] (setting [7]) is 247 ± 22 s; in data set [2] (0,05 mg/kg i.p., Excipient 158 ± 15), 219 ± 18 s. The “% TIME IN LIGHT COMPARTMENT (X ± E.S.)” value in data set [4] (2µg/kg i.p., N 10, same group PRE-EXPOSURE 16,6 ± 3,3) is on record as 12,3 ± 2,7%; in data set [4] (4 µg/kg v.o., N 10, same group PRE-EXPOSURE 21,1 ± 8,0), 18,7 ± 5,1%. The same compound registered an LD50 in data set [3] (ip) of 7.5 mg/kg.
Regarding `CN1[C@@H]2CC[C@H]1C[C@@H](OC(=O)c1c[nH]c3ccccc13)C2` [TROPISETRON], the “SOCIAL INTERACTION TIME (sec ± E.S.)” value is 253 ± 10 s in data set [2] (setting [7]) and 231 ± 26 s in data set [2] (0,1 mg/kg i.p., Excipient 158 ± 15). Further, the “% TIME IN LIGHT COMPARTMENT (X ± E.S.)” value in data set [4] (10 µg/kg i.p., N 20, same group PRE-EXPOSURE 12,4 ± 3,0) is listed as 12,3 ± 3,0%.
As to `CN1C2CCCC1CC(NC(=O)c1nn(C)c3ccccc13)C2` (stereo not shown) [GRANISETRON], the “2nd LATENCY (10'), average ± E.S.” value in data set [5] (0,1 mg/kg i.p., N 6, Excipient 5,7 ± 1,5) is recorded as 8,5 ± 1,8. The “2nd LATENCY (10'), median” value in data set [5] (0,1 mg/kg i.p., N 6, Excipient 6) turned out to be 11. In addition, the “1st LATENCY, average ± E.S.” value in data set [5] (0,1 mg/kg i.p., N 6, Excipient 7,1 ± 1,6) was 6,3 ± 1,1. In data set [5] (0,1 mg/kg i.p., N 6, Excipient 9), the “1st LATENCY, median” value came out at 8. In addition, in data set [5] (0,1 mg/kg i.p., N 6, Excipient 10,7 ± 4,8), the “3rd LATENCY -(24 h), average ± E.S.” value is given as 19,0 ± 6,5. In data set [5] (0,1 mg/kg i.p., N 6, Excipient 21), the “3rd LATENCY -(24 h), median” value worked out at 21. For the same compound, the LD50 in data set [3] (setting [6]) was found to be 89 mg/kg.
On to `O=C1CC2(CCCC2)CC(=O)N1CCCCN1CCN(c2ncccn2)CC1` [BUSPIRONA], for which the “SOCIAL INTERACTION TIME (sec ± E.S.)” value in data set [2] (0,25 mg/kg i.p., Excipient 158 ± 15) was 287 ± 19 s; in data set [2] (1 mg/kg i.p., Excipient 158 ± 15), 275 ± 14 s.
`O=Cc1c(N2CCN(Cc3ccc4c(c3)OCO4)CC2)[nH]c2ccccc12` [COMPOUND I, 3-[2-(1-(4'-piperonylpiperazinyl))indolyl]-carboxaldehyde]: the “SOCIAL INTERACTION TIME (sec ± E.S.)” value is 235 ± 12 s in data set [2] (0,5 mg/kg i.p., Excipient 158 ± 15) and 262 ± 17 s in data set [2] (2 mg/kg v.o., Excipient i.p 158 ± 15). For the same compound, the “2nd LATENCY (10'), average ± E.S.” value in data set [5] (1 mg/kg i.p., N 7, Excipient 5,7 ± 1,5) is 3,3 ± 1,4. Further, the “2nd LATENCY (10'), median” value in data set [5] (1 mg/kg i.p., N 7, Excipient 6) is reported as 4. Besides, the “1st LATENCY, average ± E.S.” value in data set [5] (1 mg/kg i.p., N 7, Excipient 7,1 ± 1,6) is on record as 2,7 ± 0,7. Moreover, the “1st LATENCY, median” value in data set [5] (1 mg/kg i.p., N 7, Excipient 9) was found to be 3. Moreover, the “3rd LATENCY -(24 h), average ± E.S.” value in data set [5] (1 mg/kg i.p., N 7, Excipient 10,7 ± 4,8) is reported as 23,6 ± 9,0. Besides, the “3rd LATENCY -(24 h), median” value in data set [5] (1 mg/kg i.p., N 7, Excipient 21) is given as 42. In addition, the “% TIME IN LIGHT COMPARTMENT (X ± E.S.)” value is given as 14,6 ± 7,2% in data set [4] (2 µg/kg i.p., N 11, same group PRE-EXPOSURE 10,8 ± 3,6); 20,0 ± 5,5% in data set [4] (4 µg/kg v.o., N 10, same group PRE-EXPOSURE 14,5 ± 4,0); 28,6 ± 8,0% in data set [4] (8 µg/kg v.o., N 11, same group PRE-EXPOSURE 24,9 ± 6,8); 12,7 ± 6,5% in data set [4] (20 µg/kg i.p., N 11, same group PRE-EXPOSURE 10,7 ± 3,5); 15,4 ± 4,4% in data set [4] (50 µg/kg i.p., N 20, same group PRE-EXPOSURE 22,9 ± 3,1); 8,6 ± 3,2% in data set [4] (100 µg/kg i.p., N 20, same group PRE-EXPOSURE 15,0 ± 2,0). The “IMMOBILITY TIME (sec ± E.S.)” value in data set [1] (0,1 mg/kg i.p., Excipient 89,70 ± 21,7) is 49,4 ± 17,8 sec; in data set [1] (0,5 mg/kg i.p., Excipient 89,70 ± 21,7) it was 31,60 ± 10,2 sec; in data set [1] (1 mg/kg i.p., Excipient 132,53 ± 8,70), 59,80 ± 11,00 sec; in data set [1] (10 mg/kg i.p., Excipient 132,53 ± 8,70), 136,60 ± 11,26 sec. For the same compound, the LD50 was more than 500 mg/kg in data set [3] (setting [6]) and more than 500 mg/kg in data set [3] (po, mice, v.o., read-out: APPROXIMATE DL₅₀).
